From paper PMC9856672, “SGC-CAMKK2-1: A Chemical Probe for CAMKK2” (Cells, 2023)

What was measured:
SgK110 = biological target: T1, SgK110 (Homo sapiens, UniProt P0C264); test: KINOMEscan 1 μM, SgK110; type: binding; conditions: 1000 nM; Entrez SgK110; read-out: Percent Control
T1 construct: purchased Eurofins DiscoverX KINOMEscan
Excerpt: (§1) Supplement cells-12-00287-s001.zip/File S2. KinomeScan data for the CAMKK2 probe and negative control.xlsx, sheet "SGC-CAMKK2-1" | column: Percent Control

MAST1 = biological target: T2, MAST1 (Homo sapiens, UniProt Q9Y2H9); test: KINOMEscan 1 μM, MAST1; type: binding; conditions: 1000 nM; Entrez MAST1; read-out: Percent Control
T2 construct: purchased Eurofins DiscoverX KINOMEscan
Excerpt: as §1

PIK3CG = biological target: T3, PIK3CG (Homo sapiens, UniProt P48736); test: KINOMEscan 1 μM, PIK3CG; type: binding; conditions: 1000 nM; Entrez PIK3CG; read-out: Percent Control
T3 construct: purchased Eurofins DiscoverX KINOMEscan
Excerpt: as §1

CSNK1A1 = biological target: T4, CSNK1A1 (Homo sapiens, UniProt P48729); test: KINOMEscan 1 μM, CSNK1A1; type: binding; conditions: 1000 nM; Entrez CSNK1A1; read-out: Percent Control
T4 construct: purchased Eurofins DiscoverX KINOMEscan
Excerpt: as §1

PRKX = biological target: T5, PRKX (Homo sapiens, UniProt P51817); test: KINOMEscan 1 μM, PRKX; type: binding; conditions: 1000 nM; Entrez PRKX; read-out: Percent Control
T5 construct: purchased Eurofins DiscoverX KINOMEscan
Excerpt: as §1

IRAK3 [1] = biological target: T6, IRAK3 (Homo sapiens, UniProt Q9Y616); test: KINOMEscan 1 μM, IRAK3; type: binding; conditions: 1000 nM; Entrez IRAK3; read-out: Percent Control
T6 construct: purchased Eurofins DiscoverX KINOMEscan
Excerpt: as §1

GSK3A = biological target: T7, GSK3A (Homo sapiens, UniProt P49840); test: KINOMEscan 1 μM, GSK3A; type: binding; conditions: 1000 nM; Entrez GSK3A; read-out: Percent Control
T7 construct: purchased Eurofins DiscoverX KINOMEscan
Excerpt: as §1

CTK = biological target: T8, CTK (Homo sapiens, UniProt P42679); test: KINOMEscan 1 μM, CTK; type: binding; conditions: 1000 nM; Entrez MATK; read-out: Percent Control
T8 construct: purchased Eurofins DiscoverX KINOMEscan
Excerpt: as §1

IRAK1 = biological target: T9, IRAK1 (Homo sapiens, UniProt P51617); test: KINOMEscan 1 μM, IRAK1; type: binding; conditions: 1000 nM; Entrez IRAK1; read-out: Percent Control
T9 construct: purchased Eurofins DiscoverX KINOMEscan
Excerpt: as §1

MAPKAPK5 = biological target: T10, MAPKAPK5 (Homo sapiens, UniProt Q8IW41); test: KINOMEscan 1 μM, MAPKAPK5; type: binding; conditions: 1000 nM; Entrez MAPKAPK5; read-out: Percent Control
T10 construct: purchased Eurofins DiscoverX KINOMEscan
Excerpt: as §1

MARK2 = biological target: T11, MARK2 (Homo sapiens, UniProt Q7KZI7); test: KINOMEscan 1 μM, MARK2; type: binding; conditions: 1000 nM; Entrez MARK2; read-out: Percent Control
T11 construct: purchased Eurofins DiscoverX KINOMEscan
Excerpt: as §1

MST3 = biological target: T12, MST3 (Homo sapiens, UniProt Q9Y6E0); test: KINOMEscan 1 μM, MST3; type: binding; conditions: 1000 nM; Entrez STK24; read-out: Percent Control
T12 construct: purchased Eurofins DiscoverX KINOMEscan
Excerpt: as §1

MYLK2 = biological target: T13, MYLK2 (Homo sapiens, UniProt Q9H1R3); test: KINOMEscan 1 μM, MYLK2; type: binding; conditions: 1000 nM; Entrez MYLK2; read-out: Percent Control
T13 construct: purchased Eurofins DiscoverX KINOMEscan
Excerpt: as §1

PLK4 = biological target: T14, PLK4 (Homo sapiens, UniProt O00444); test: DiscoverX KINOMEscan binding assay at 1 μM, PLK4; conditions: Compound Concentration 1000 nM, read-out: Percent Control
T14 construct: purchased Eurofins DiscoverX KINOMEscan
Excerpt: as §1

RAF1 = biological target: T15, RAF1 (Homo sapiens, UniProt P04049); test: DiscoverX KINOMEscan binding assay at 1 μM, RAF1; conditions: Compound Concentration 1000 nM, read-out: Percent Control
T15 construct: purchased Eurofins DiscoverX KINOMEscan
Excerpt: as §1

[2] = biological target: T16, RSK3(Kin.Dom.2-C-terminal) (Homo sapiens, UniProt Q15349); test: DiscoverX KINOMEscan binding assay at 1 μM, RSK3(Kin.Dom.2-C-terminal); conditions: RSK3(Kin.Dom.2-C-terminal) (RPS6KA2); Compound Concentration 1000 nM; read-out: Percent Control
T16 construct: RSK3(Kin.Dom.2-C-terminal); purchased Eurofins DiscoverX KINOMEscan
Excerpt: as §1

VPS34 = biological target: T17, VPS34 (Homo sapiens, UniProt Q8NEB9); test: DiscoverX KINOMEscan binding assay at 1 μM, VPS34; conditions: VPS34 (PIK3C3); Compound Concentration 1000 nM; read-out: Percent Control
T17 construct: purchased Eurofins DiscoverX KINOMEscan
Excerpt: as §1

CDK11 = biological target: T18, CDK11 (Homo sapiens, UniProt Q9BWU1); test: KINOMEscan at 1 μM, CDK11; type: binding; conditions: 1000 nM, read-out: Percent Control
T18 construct: purchased Eurofins DiscoverX KINOMEscan
Excerpt: (§2) Supplement cells-12-00287-s001.zip/File S2. KinomeScan data for the CAMKK2 probe and negative control.xlsx, sheet "SGC-CAMKK2-1N" | column: Percent Control

MYLK = biological target: T19, MYLK (Homo sapiens, UniProt Q15746); test: KINOMEscan at 1 μM, MYLK; type: binding; conditions: 1000 nM, read-out: Percent Control
T19 construct: purchased Eurofins DiscoverX KINOMEscan
Excerpt: as §2

[3] = biological target: T20, ABL1(H396P)-phosphorylated (Homo sapiens, UniProt P00519, H396P); test: KINOMEscan at 1 μM, ABL1(H396P)-phosphorylated; type: binding; conditions: 1000 nM, read-out: Percent Control
T20 construct: purchased Eurofins DiscoverX KINOMEscan
Excerpt: as §2

HIPK2 = biological target: T21, HIPK2 (Homo sapiens, UniProt Q9H2X6); test: KINOMEscan at 1 μM, HIPK2; type: binding; conditions: 1000 nM, read-out: Percent Control
T21 construct: purchased Eurofins DiscoverX KINOMEscan
Excerpt: as §2

IRAK3 [4] = biological target: T6, IRAK3; test: KINOMEscan at 1 μM, IRAK3; type: binding; conditions: 1000 nM, read-out: Percent Control
Excerpt: as §2

[5] = biological target: T22, JAK1(JH1domain-catalytic) (Homo sapiens, UniProt P23458); test: KINOMEscan at 1 μM, JAK1(JH1domain-catalytic); type: binding; conditions: 1000 nM, read-out: Percent Control
T22 construct: JAK1(JH1domain-catalytic); purchased Eurofins DiscoverX KINOMEscan
Excerpt: as §2

[6] = biological target: T23, RPS6KA4(Kin.Dom.2-C-terminal) (Homo sapiens, UniProt O75676); test: KINOMEscan at 1 μM, RPS6KA4(Kin.Dom.2-C-terminal); type: binding; conditions: 1000 nM, read-out: Percent Control
T23 construct: RPS6KA4(Kin.Dom.2-C-terminal); purchased Eurofins DiscoverX KINOMEscan
Excerpt: as §2

ERBB4 = biological target: T24, ERBB4 (Homo sapiens, UniProt Q15303); test: KINOMEscan at 1 μM, ERBB4; type: binding; conditions: 1000 nM, read-out: Percent Control
T24 construct: purchased Eurofins DiscoverX KINOMEscan
Excerpt: as §2

[7] = biological target: T25, ABL1(F317I)-phosphorylated (Homo sapiens, UniProt P00519, F317I); test: KINOMEscan at 1 μM, ABL1(F317I)-phosphorylated; type: binding; conditions: 1000 nM, read-out: Percent Control
T25 construct: purchased Eurofins DiscoverX KINOMEscan
Excerpt: as §2

FLT3-autoinhibited = biological target: T26, FLT3-autoinhibited (Homo sapiens, UniProt P36888); test: KINOMEscan at 1 μM, FLT3-autoinhibited; type: binding; conditions: 1000 nM, read-out: Percent Control
T26 construct: purchased Eurofins DiscoverX KINOMEscan
Excerpt: as §2

PRKCH = biological target: T27, PRKCH (Homo sapiens, UniProt P24723); test: KINOMEscan at 1 μM, PRKCH; type: binding; conditions: 1000 nM, read-out: Percent Control
T27 construct: purchased Eurofins DiscoverX KINOMEscan
Excerpt: as §2

DCAMKL1 = biological target: T28, DCAMKL1 (Homo sapiens, UniProt O15075); test: KINOMEscan at 1 μM, DCAMKL1; type: binding; conditions: 1000 nM, read-out: Percent Control
T28 construct: purchased Eurofins DiscoverX KINOMEscan
Excerpt: as §2

PIP5K1C = biological target: T29, PIP5K1C (Homo sapiens, UniProt O60331); test: KINOMEscan binding assay at 1 μM, PIP5K1C; conditions: Compound Concentration 1000 nM; read-out: Percent Control
T29 construct: purchased Eurofins DiscoverX KINOMEscan
Excerpt: as §2

[8] = biological target: T30, RSK4(Kin.Dom.2-C-terminal) (Homo sapiens, UniProt Q9UK32); test: KINOMEscan binding assay at 1 μM, RSK4(Kin.Dom.2-C-terminal); conditions: Compound Concentration 1000 nM; read-out: Percent Control
T30 construct: RSK4(Kin.Dom.2-C-terminal); purchased Eurofins DiscoverX KINOMEscan
Excerpt: as §2

T6 sequence (Q9Y616 whole entry): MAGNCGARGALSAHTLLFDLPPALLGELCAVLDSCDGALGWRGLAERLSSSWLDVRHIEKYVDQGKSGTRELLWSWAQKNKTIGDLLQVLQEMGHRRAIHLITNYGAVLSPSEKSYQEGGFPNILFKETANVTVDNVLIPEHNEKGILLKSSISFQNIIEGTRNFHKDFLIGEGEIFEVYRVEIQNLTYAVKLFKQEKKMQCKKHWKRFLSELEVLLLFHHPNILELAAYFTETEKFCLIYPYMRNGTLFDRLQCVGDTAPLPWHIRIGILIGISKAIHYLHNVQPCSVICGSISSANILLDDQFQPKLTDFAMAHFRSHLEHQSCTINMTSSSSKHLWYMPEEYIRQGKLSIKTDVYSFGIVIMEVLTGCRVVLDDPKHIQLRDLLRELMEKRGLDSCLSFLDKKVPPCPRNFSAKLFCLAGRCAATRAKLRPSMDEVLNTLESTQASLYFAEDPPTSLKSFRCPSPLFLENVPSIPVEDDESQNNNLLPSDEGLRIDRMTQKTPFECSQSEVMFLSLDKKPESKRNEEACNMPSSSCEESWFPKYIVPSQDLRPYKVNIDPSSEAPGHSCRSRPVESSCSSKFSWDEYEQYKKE
T17 sequence (Q8NEB9 whole entry): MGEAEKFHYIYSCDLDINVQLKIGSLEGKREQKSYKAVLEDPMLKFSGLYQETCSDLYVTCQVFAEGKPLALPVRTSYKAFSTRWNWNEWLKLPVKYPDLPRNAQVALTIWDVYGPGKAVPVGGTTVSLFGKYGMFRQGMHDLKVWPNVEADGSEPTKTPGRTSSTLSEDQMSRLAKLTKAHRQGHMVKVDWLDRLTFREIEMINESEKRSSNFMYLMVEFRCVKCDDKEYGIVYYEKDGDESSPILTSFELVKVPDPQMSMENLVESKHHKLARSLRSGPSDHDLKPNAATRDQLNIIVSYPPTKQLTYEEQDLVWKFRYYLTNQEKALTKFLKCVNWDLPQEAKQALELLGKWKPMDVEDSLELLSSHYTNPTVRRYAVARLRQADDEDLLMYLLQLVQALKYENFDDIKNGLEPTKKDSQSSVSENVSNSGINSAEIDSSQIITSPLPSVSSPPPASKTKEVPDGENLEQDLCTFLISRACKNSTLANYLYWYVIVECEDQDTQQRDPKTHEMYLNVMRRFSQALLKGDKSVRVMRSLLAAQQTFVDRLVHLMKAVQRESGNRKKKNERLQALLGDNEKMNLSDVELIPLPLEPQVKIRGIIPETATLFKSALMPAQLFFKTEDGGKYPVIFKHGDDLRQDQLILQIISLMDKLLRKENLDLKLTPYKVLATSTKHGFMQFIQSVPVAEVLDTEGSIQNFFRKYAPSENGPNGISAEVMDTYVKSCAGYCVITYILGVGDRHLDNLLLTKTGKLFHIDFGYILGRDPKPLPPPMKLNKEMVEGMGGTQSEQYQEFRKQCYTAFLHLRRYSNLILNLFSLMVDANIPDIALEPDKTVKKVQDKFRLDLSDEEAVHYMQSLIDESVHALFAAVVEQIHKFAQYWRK
T26 sequence (P36888 27-993): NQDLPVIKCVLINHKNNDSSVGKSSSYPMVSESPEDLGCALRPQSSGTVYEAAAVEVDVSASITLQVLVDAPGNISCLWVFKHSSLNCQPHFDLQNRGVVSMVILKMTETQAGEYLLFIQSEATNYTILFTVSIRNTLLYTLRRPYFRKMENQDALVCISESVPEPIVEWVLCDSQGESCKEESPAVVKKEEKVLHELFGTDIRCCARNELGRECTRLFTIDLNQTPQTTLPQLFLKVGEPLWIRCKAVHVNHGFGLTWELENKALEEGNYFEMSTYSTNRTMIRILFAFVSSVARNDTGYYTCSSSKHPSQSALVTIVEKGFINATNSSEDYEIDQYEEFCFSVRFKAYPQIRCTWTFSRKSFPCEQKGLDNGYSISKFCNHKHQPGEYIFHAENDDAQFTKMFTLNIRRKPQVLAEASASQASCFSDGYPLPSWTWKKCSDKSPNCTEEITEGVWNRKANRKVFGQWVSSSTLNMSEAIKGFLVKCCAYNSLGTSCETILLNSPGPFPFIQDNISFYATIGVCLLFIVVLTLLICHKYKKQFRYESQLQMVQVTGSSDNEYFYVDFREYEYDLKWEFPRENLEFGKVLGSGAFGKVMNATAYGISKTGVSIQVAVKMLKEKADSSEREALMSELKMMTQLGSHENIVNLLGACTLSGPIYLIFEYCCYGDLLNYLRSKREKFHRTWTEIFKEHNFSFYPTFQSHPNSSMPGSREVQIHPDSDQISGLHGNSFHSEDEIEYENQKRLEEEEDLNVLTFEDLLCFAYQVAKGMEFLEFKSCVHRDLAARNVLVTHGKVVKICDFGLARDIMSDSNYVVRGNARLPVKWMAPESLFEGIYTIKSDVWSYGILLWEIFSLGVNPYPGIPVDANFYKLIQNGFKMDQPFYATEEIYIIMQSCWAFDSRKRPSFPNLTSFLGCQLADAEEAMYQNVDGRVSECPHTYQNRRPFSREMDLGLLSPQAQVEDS
T16 sequence (Q15349 389-733 limits assumed): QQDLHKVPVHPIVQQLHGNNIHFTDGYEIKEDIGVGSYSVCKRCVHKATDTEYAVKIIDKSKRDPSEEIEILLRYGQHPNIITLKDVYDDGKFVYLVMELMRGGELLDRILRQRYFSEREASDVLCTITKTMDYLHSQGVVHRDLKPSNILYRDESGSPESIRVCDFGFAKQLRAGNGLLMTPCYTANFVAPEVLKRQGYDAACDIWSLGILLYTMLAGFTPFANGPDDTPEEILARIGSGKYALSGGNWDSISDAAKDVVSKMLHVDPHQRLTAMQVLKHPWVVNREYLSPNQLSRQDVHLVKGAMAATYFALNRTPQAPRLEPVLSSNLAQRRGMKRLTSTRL
T19 sequence (Q15746 whole entry): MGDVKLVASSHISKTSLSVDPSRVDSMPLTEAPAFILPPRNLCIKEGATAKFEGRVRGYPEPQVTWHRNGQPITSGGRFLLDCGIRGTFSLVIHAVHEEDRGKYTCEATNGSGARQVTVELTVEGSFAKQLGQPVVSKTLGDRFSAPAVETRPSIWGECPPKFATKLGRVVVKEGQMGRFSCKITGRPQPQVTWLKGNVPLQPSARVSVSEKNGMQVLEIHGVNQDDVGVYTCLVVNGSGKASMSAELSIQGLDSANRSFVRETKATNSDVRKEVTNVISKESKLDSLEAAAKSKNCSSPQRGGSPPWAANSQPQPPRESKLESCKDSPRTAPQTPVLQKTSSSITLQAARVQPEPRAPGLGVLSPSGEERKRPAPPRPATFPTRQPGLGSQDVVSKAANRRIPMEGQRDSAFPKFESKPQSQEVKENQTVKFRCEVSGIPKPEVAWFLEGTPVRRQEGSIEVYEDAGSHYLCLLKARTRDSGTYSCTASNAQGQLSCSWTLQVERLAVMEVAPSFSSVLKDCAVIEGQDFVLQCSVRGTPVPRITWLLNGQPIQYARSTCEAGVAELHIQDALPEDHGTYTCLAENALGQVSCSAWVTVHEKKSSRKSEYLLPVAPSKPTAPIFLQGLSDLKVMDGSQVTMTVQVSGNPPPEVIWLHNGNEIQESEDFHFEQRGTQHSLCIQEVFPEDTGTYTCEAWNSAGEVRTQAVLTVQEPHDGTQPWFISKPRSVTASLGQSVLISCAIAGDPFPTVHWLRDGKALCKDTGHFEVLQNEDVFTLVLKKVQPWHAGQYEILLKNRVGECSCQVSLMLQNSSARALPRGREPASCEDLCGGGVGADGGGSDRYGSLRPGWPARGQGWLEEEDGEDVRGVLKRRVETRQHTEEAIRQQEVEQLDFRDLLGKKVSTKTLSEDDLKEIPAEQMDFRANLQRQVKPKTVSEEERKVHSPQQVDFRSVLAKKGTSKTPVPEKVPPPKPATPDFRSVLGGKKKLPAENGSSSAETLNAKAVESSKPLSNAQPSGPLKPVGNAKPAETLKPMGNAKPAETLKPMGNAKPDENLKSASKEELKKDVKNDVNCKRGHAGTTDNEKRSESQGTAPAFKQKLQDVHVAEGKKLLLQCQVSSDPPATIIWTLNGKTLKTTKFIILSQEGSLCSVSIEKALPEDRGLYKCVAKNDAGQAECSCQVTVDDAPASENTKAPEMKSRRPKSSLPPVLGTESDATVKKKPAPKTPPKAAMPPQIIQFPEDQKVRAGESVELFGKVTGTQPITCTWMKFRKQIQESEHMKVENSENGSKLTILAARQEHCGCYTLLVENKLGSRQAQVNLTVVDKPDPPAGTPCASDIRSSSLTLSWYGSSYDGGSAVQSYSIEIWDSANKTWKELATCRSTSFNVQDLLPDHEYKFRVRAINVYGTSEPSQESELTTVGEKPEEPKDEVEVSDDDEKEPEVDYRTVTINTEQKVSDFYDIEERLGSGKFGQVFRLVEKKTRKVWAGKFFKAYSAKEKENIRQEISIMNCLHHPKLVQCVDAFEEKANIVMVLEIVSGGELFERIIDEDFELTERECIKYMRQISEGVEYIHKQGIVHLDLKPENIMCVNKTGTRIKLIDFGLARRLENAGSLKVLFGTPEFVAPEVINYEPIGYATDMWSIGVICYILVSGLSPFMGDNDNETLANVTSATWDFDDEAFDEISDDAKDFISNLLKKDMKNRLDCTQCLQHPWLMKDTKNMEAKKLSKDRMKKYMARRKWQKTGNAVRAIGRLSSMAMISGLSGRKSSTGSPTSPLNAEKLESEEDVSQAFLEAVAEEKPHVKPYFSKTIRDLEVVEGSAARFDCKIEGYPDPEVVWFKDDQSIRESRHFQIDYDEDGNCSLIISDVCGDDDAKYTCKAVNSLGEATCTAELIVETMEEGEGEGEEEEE
T22 sequence (P23458 854-1154 limits assumed): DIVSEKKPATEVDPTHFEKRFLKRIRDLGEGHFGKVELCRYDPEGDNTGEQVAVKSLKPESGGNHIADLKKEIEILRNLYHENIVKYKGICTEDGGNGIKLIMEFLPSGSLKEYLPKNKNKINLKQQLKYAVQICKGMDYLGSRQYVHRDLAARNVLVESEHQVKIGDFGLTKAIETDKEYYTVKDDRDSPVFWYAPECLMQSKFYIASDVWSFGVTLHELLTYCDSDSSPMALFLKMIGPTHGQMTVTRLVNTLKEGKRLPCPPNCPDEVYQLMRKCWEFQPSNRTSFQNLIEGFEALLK

Cc1cccc(-c2cnc3occ(-c4ccc(C(=O)O)c(C5CCCC5)c4)c3c2)c1 [SGC-CAMKK2-1 (YL-36)]
remaining binding at 1 µM (SgK110): 57%
remaining binding at 1 µM (MAST1): 65%
remaining binding at 1 µM (PIK3CG): 76%
remaining binding at 1 µM (CSNK1A1): 78%
remaining binding at 1 µM (PRKX): 79%
remaining binding at 1 µM (IRAK3 [1]): 88%
remaining binding at 1 µM (GSK3A): 92%
remaining binding at 1 µM (CTK): 100%
remaining binding at 1 µM (IRAK1): 100%
remaining binding at 1 µM (MAPKAPK5): 100%
remaining binding at 1 µM (MARK2): 100%
remaining binding at 1 µM (MST3): 100%
remaining binding at 1 µM (MYLK2): 100%
remaining binding at 1 µM (PLK4): 100%
remaining binding at 1 µM (RAF1): 100%
remaining binding at 1 µM [2]: 100%
remaining binding at 1 µM (VPS34): 100%

O=C(O)c1ccc(-c2coc3ncc(-c4ccccc4)cc23)cc1Cl [SGC-CAMKK2-1N (UNC-YL-83)]
remaining binding at 1 µM (CDK11): 56%
remaining binding at 1 µM (MYLK): 69%
remaining binding at 1 µM [3]: 74%
remaining binding at 1 µM (HIPK2): 77%
remaining binding at 1 µM (IRAK3 [4]): 82%
remaining binding at 1 µM [5]: 82%
remaining binding at 1 µM [6]: 82%
remaining binding at 1 µM (ERBB4): 83%
remaining binding at 1 µM [7]: 90%
remaining binding at 1 µM (FLT3-autoinhibited): 91%
remaining binding at 1 µM (PRKCH): 94%
remaining binding at 1 µM (DCAMKL1): 100%
remaining binding at 1 µM (PIP5K1C): 100%
remaining binding at 1 µM [8]: 100%
